Counter-ions that a name gives are not always drawn.
How the values were obtained:
[1] = tested on: Interleukin-2 (IL-2) production on spleen cells in the MLR; assay: Measurement of interleukin-2 production in MLR (mixed lymphocyte reaction); type: cell-based, mice; details: 48 h culture, ELISA
Description: Measurement of Interleukin-2 Production in MLR (Mixed Lymphocyte Reaction)
Measurement of interleukin-2 production in MLR was performed according to the described procedure (Gaveriaux-Ruff et al., J. Pharmacol. Exper. Ther. 298, 1193, 2001).
Splenocytes from mice were cultured with allogeneic stimulators (mitomycin treated BALB/c spleen cells).

[2] = biological target: calcineurin (Homo sapiens, UniProt Q08209); assay: Calcineurin inhibition assay; type: biochemical; details: compound at a concentration of 20 μM
Sequence of calcineurin (P63098 2-170, other chains not shown): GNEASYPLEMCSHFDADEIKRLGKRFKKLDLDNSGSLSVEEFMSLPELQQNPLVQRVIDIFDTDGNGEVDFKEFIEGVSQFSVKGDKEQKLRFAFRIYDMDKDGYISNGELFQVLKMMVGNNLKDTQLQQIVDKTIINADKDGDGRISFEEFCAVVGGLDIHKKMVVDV
Description: Calcineurin Inhibition Assays
Calcineurin inhibition assay was performed according to a described procedure (R. Baumgrass et al., J. Biol. Chem. 276, 47914, 2001).
Calcineurin inhibition was measured in a concentration range of 1-50 μM of the test compound at optimal Ca^2+ and calmoduline concentrations. The calcineurin/compound mixtures were equilibrated in the assay buffer (40 mM Tris-HCl, pH 7.5, 100 mM NaCl, 6 mM MgCl2, 0.5 mM ditiothreitol, 1 mM CaCl2, 0.1 mg/ml bovine serum albumin) at 22° C. for 30 min. Calcineurin activity was referenced to the assay lacking the test compounds. The data were computed with the SigmaPlot program.

| Structure (SMILES) | IL-2 ([1]; 10 μM compound) | Calcineurin activity (% of control) [2] | further results |
| --- | --- | --- | --- |
| CCOC12Cc3c([nH]c4ccccc34)C3(C)Oc4c(O)ccc5c4C31CCN(CC1CC1)C2C5 (stereo not drawn) [HS 378, 17-(Cyclopropylmethyl)-6,7-dehydro-4,5α-epoxy-14ethoxy-3-hydroxy-5-methyl-6,7-2′,3′-indolomorphinan Hydrochloride] | 31 ± 3 pg/mL | – | IL-2 ([1]; 2 μM compound): 49 ± 7 pg/mL; IL-2 ([1]; 20 μM compound): 22 ± 2 pg/mL |
| Cl.Oc1ccc2c3c1OC1c4[nH]c5ccccc5c4CC4(OCc5ccccc5-c5ccccc5)C(C2)N(CC2CC2)CCC314 (stereo not drawn) [HS 882, 17-(Cyclopropylmethyl)-6,7-didehydro-4,5α-epoxy-14β-[(2-phenylbenzyl)oxy]indolo[2′,3′:6,7]morphinan-3-ol Hydrochloride] | – | 49 % of control | – |
| CC(C)(C)c1ccc(COC23Cc4c([nH]c5ccccc45)C4Oc5c(O)ccc6c5C42CCN(CC2CC2)C3C6)cc1.Cl (stereo not drawn) [HS 884, 14β-[(4-tert.-Butylbenzyl)oxy]-17-(cyclopropylmethyl)-6,7-didehydro-4,5α-epoxyindolo[2′,3′:6,7]morphinan-3-ol Hydrochloride] | – | 65 % of control | – |
| Oc1ccc2c3c1OC1c4[nH]c5ccccc5c4CC4(OCCCc5ccccc5)C(C2)N(CC2CC2)CCC314 (stereo not drawn) [HS 894, 17-(Cyclopropylmethyl)-6,7-didehydro-4,5α-epoxy-14β-[(3-phenylpropyl)oxy]indolo[2′,3′:6,7]morphinan-3-ol] | – | 30 % of control | – |
| Oc1ccc2c3c1O[C@H]1c4[nH]c5ccccc5c4C[C@@]4(O)[C@@H](C2)N(CC2CC2)CC[C@]314 [Naltrindole, reference compound] | 29 ± 6 pg/mL | – | IL-2 ([1]; 3 μM compound): 66 ± 18 pg/mL; IL-2 ([1]; 30 μM compound): 19 ± 5 pg/mL |
